Here are results for seven compounds from publication PMC7076710, “Synthesis, Identification, and Structure–Activity Relationship Analysis of GATA4 and NKX2-5 Protein–Protein Interaction Modulators” (Journal of Medicinal Chemistry, 2019).

Format in all cases: cell-based
Data set [1] deals with COS-1 cells. Nature of the data set: ATP assay (CellTiter-Glo cell viability). The settings on record: 24-h exposure; for reduction of cell viability (ATP content): 10 μM. From the text:
To investigate the toxicity as a potential cause of decreased or increased activity in luciferase reporter gene assays, we tested a set of 40 active compounds in the COS-1 cell line used for the luciferase assays. Concentration-dependent toxic effects were investigated using the lactate dehydrogenase (LDH) assay to detect necrosis and the 3-(4,5-dimethylthiazol-2-yl)-2,5-diphenyltetrazolium bromide (MTT) assay as a measure of cell viability. […] For the data analysis, compounds were classified as toxic (Figures 5 and 7) if they induced a >10% decrease in cell viability in the MTT assay at the concentration of 10 μM. The most toxic compounds (35a, 35d, 54, 58, and 63–65) in the MTT assay all contained a phenyl substituent in the southern part ring, while the ortho-nitrophenyl-derivative 39g and the phenyl-substituted thiophene 47t were nontoxic. Higher flexibility in the central parts of the ethers (35a, 35d) and N-acylated amines (58, 64) might contribute to their toxicity, because less rigid compounds are more likely to have affinity to various biological targets. Such interactions can cause toxicity. To confirm and validate the results from MTT assays, we tested three nontoxic (2, 47s, and 72) and three toxic (1, 35a, and 58) compounds in a cell viability assay measuring intracellular ATP content.
Figure 5 Effects of selected compounds on COS-1 cell viability. (A) Compound-induced necrosis was quantified with the LDH assay after a 24-h compound exposure. The data are presented as cytotoxicity percentage (% of maximal LDH release). (B) Cell viability was analyzed with the MTT assay after a 24-h compound exposure. (A,B) The data are means from 2–3 independent experiments with 3 replicate wells in each and are presented as % of control (vehicle-treated cells). The compounds have been grouped on the basis of the structure of the central part: a, amide; b, ether; c, N-acylated amine; d, amine; and e, imine. (C) The effects of selected compounds on cell viability as determined by ATP content after a 24-h compound exposure. The data are mean + SEM from three independent experiments and are presented as % of vehicle-treated cells.
A selected set of compounds were tested also in the ATP assay by using CellTiter-Glo Luminescent Cell Viability assay (Promega). Subculturing and treatment of COS-1 cells were otherwise performed similar to that in the MTT test, but the final volume of treatment was 200 μL per well. Doxorubicin was used as a positive control in the assay. After treatment, the plates were equilibrated at room temperature for 30 min, after which the media was removed and cells were washed with 100 μL of PBS. Next, 50 μL of fresh media and 50 μL of mixed CellTiter Glo Reagent were added to the plate. The contents of the plates were mixed for 2 min, and incubated at room temperature for 15 min. The luminescence was measured with VarioskanTM LUX Multimode Plate Reader (Thermo Fisher Scientific, Waltham, MA) using SkanItTM Software 5.0.
(Cellular ATP, detected with luciferase, serves as a proxy for viable cell number.)

The test system of data set [2] is COS-1 cells. In words: MTT assay (cell viability). The settings on record: for MTT.1µM / MTT.3µM / MTT.10µM / MTT.30µM: cell viability; for toxicity class in the MTT assay: 24-h exposure, classified at 10 μM. On the technique in general: Tetrazolium assays rely on reduction of a dye to a coloured formazan, in cell work by metabolically active cells.
For data set [3], the system named is COS-1 cells. In words: LDH assay (necrosis).

As for `CCN(CC)c1ccc(NC(=O)c2c(-c3ccccc3)noc2C)cc1` [Compound 1, N-[4-(Diethylamino)phenyl]-5-methyl-3-phenylisoxazole-4-carboxamide], in the data set with COS-1 cells [1], the “reduction of cell viability (ATP content)” value (“reduction of cell viability” below) is reported as > 10%. Moreover, in the data set with COS-1 cells [2] (COS-1 cells), the MTT.1µM was determined as 98.55%, the MTT.3µM amounted to 96.23%, the MTT.10µM turned out to be 89.96% and the MTT.30µM amounted to 91.57%. For the same compound, the “toxicity class in the MTT assay” value in the data set on COS-1 cells [2] is given as “toxic (Toxic compounds (cell viability <90%))”. For the same compound, in the data set on COS-1 cells [3] (COS-1 cells), the LDH.1µM is reported as 1.16, the LDH.3µM was found to be 0.89, the LDH.10µM is listed as -0.76 and the LDH.30µM is recorded as -0.02.
For the compound `Cc1onc(-c2ccccc2)c1C(=O)N(C1=NC(C)CS1)c1ccc(Cl)cc1` (centres unmarked) [Compound 2], in the data set on COS-1 cells [1], the “toxicity in the ATP assay (in words)” value is “no toxicity”. In the data set with COS-1 cells [2] (COS-1 cells), this compound returned an MTT.3µM of 105.13%, an MTT.10µM of 107.32% and an MTT.30µM of 87.3%. For the same compound, the “toxicity class in the MTT assay” value with COS-1 cells [2] is recorded as “nontoxic (nontoxic compounds (cell viability >90%))”. Further, in the data set on COS-1 cells [3] (COS-1 cells), the LDH.1µM was 1.6, the LDH.3µM came to 1.4, the LDH.10µM is listed as 1.08 and the LDH.30µM worked out at 1.02.
As to `Cc1onc(-c2ccccc2)c1COc1ccc(C(=O)OCCC#N)cc1` [Compound 35a, 2-Cyanoethyl 4-[(5-Methyl-3-phenylisoxazol-4-yl)methoxy]benzoate], in the data set with COS-1 cells [1], the “reduction of cell viability” value is reported as > 10%. In the data set with COS-1 cells [2], this compound returned an MTT.1µM of 83.35, an MTT.3µM of 72.67, an MTT.10µM of 66.11 and an MTT.30µM of 61.55. For the same compound, in the data set on COS-1 cells [2], the “toxicity class in the MTT assay” value is “most toxic”. In the data set on COS-1 cells [3], the LDH.1µM amounted to 0.51, the LDH.3µM worked out at 1.44, the LDH.10µM was 1.72 and the LDH.30µM worked out at 1.
Consider `CCN(CC)c1ccc(NC(=O)c2cnsc2)cc1` [Compound 47s], for which, in the data set with COS-1 cells [1], the “toxicity in the ATP assay (in words)” value is listed as “no toxicity”. In the data set with COS-1 cells [2], this compound came in with an MTT.1µM of 103.66, an MTT.3µM of 95.56, an MTT.10µM of 92.49 and an MTT.30µM of 105.44. For the same compound, in the data set on COS-1 cells [2], the “toxicity class in the MTT assay” value is listed as “nontoxic (nontoxic compounds (cell viability >90%))”. In the data set on COS-1 cells [3], this compound had an LDH.1µM of 3.18, an LDH.3µM of 0.65, an LDH.10µM of 1.08 and an LDH.30µM of 0.91.
On to `CCC(=O)N(Cc1ccc(N(CC)CC)cc1)c1c(-c2ccccc2)noc1C` [Compound 58], for which the “reduction of cell viability” value in the data set with COS-1 cells [1] is recorded as > 10%. In the data set with COS-1 cells [2], this compound had an MTT.1µM of 99.35, an MTT.3µM of 82.12, an MTT.10µM of 76.17 and an MTT.30µM of 63.57. Also, the “toxicity class in the MTT assay” value in the data set with COS-1 cells [2] was “most toxic”. For the same compound, in the data set on COS-1 cells [3], the LDH.1µM is 0.36, the LDH.3µM was -0.8, the LDH.10µM is -1.03 and the LDH.30µM was determined as 1.47.
As to `COc1ccc(-c2cc(NC(=O)c3ccc(C(C)(C)C)cc3)n[nH]2)cc1` [Compound 72], the “toxicity in the ATP assay (in words)” value in the data set on COS-1 cells [1] was “no toxicity”. In the data set on COS-1 cells [2], this compound yielded an MTT.1µM of 110.93, an MTT.3µM of 101.15, an MTT.10µM of 102.37 and an MTT.30µM of 107.89. For the same compound, in the data set with COS-1 cells [2], the “toxicity class in the MTT assay” value was “nontoxic (nontoxic compounds (cell viability >90%))”. Besides, in the data set with COS-1 cells [3], the LDH.1µM turned out to be 2.2, the LDH.3µM worked out at 0.82, the LDH.10µM stood at 0.22 and the LDH.30µM is -0.27.
Take “N-[4-(Diethylamino)phenyl]-3-methyl-5-(4-methyl-1,2,3-thiadiazol-5-yl)isoxazole-4-carboxamide [Compound 47c]”: in the data set on COS-1 cells [2], the MTT.1µM was found to be 88.76, the MTT.3µM worked out at 85.01, the MTT.10µM is recorded as 81.61 and the MTT.30µM is on record as 78.65. The “toxicity class in the MTT assay” value in the data set with COS-1 cells [2] is reported as “high toxicity”. For the same compound, in the data set on COS-1 cells [3], the LDH.1µM is reported as -0.01, the LDH.3µM is -0.17, the LDH.10µM worked out at 0.1 and the LDH.30µM is -0.11.
